In ChEMBL document CHEMBL3351618, “Prospects of an alternative treatment against Trypanosoma cruzi based on abietic acid derivatives show promising results in Balb/c mouse model” (Eur J Med Chem, 2015):
pIC50: −log10 of the molar value. Active and inactive are the calls of the source. The rule behind the calls is not given here.

Tests used:
Trypanosoma cruzi [1] = test: Trypanocidal activity against epimastigote Trypanosoma cruzi IRHOD/CO/2008/SN3; assay type: functional, organism-based
Trypanosoma cruzi [2] = test: Trypanocidal activity against intracellular amastigote form of Trypanosoma cruzi IRHOD/CO/2008/SN3 in african green monkey Vero cells; assay type: functional, organism-based; conditions: IRHOD/CO/2008/SN3, Vero
Vero = test: Cytotoxicity against african green monkey Vero cells after 72 hrs; assay type: cell-based; conditions: Chlorocebus sabaeus
[3] = Selectivity index, ratio of IC50 for african green monkey Vero cells to IC50 for epimastigote Trypanosoma cruzi IRHOD/CO/2008/SN3; assay type: toxicity, cell-based; conditions: read-out: Ratio IC50
[4] = Selectivity index, ratio of IC50 for african green monkey Vero cells to IC50 for intracellular amastigote form of Trypanosoma cruzi IRHOD/CO/2008/SN3; assay type: toxicity, cell-based; conditions: read-out: Ratio IC50
Trypanosoma cruzi [5] = test: Antiparasitic activity against trypomastigote form of Trypanosoma cruzi IRHOD/CO/2008/SN3 infected in BALB/c mouse acute chagas disease model assessed as parasite reduction in blood at 5 mg/kg, ip measured on day 40 post infection; assay type: functional; set-up: scale not given: the % may be the effect or the level left; conditions: route intraperitoneal
Trypanosoma cruzi [6] = test: Antiparasitic activity against trypomastigote form of Trypanosoma cruzi IRHOD/CO/2008/SN3 infected in BALB/c mouse acute chagas disease model assessed as parasitemia reactivation at 5 mg/kg, ip after 60 days immunosuppressed with cyclophosphamide monohydrate measured up to day 120 post infection (reference value: 80.3%); assay type: functional; conditions: route intraperitoneal
Leishmania donovani [7] = test: Antileishmanial activity against intracellular amastigote form of Leishmania donovani; assay type: functional, organism-based
Leishmania major = test: Antileishmanial activity against Leishmania major; assay type: functional, organism-based
Leishmania donovani [8] = test: Antileishmanial activity against intracellular amastigote stage of Leishmania donovani; assay type: functional, organism-based
L6 = test: Cytotoxicity against rat L6 cells; assay type: cell-based
Plasmodium falciparum = test: Antiplasmodial activity against chloroquine-resistant Plasmodium falciparum 2/K1-strain cultured in human red blood cells assessed as infected cells after 72 hrs by malstat method; assay type: functional, organism-based; conditions: 2/K1, 72 h
[9] = Selectivity index, ratio of IC50 for human MRC5 cells to IC50 for Plasmodium falciparum 2/K 1-strain; assay type: toxicity, cell-based; conditions: read-out: Ratio IC50
Trypanosoma brucei = test: Antitrypanosomal activity against trypomastigote Trypanosoma brucei Squib-427 strain cultured in MRC-5 cells assessed as parasite growth after 7 days by beta-galactosidase assay; assay type: functional, organism-based; conditions: Squib-427, MRC5, 168 h
[10] = Selectivity index, ratio of IC50 for human MRC5 cells to IC50 for Trypanosoma brucei Squib-427; assay type: toxicity, cell-based; conditions: read-out: Ratio IC50
Trypanosoma cruzi [11] = test: Antiparasitic activity against trypomastigote form of Trypanosoma cruzi IRHOD/CO/2008/SN3 infected in BALB/c mouse acute chagas disease model assessed as parasite reduction in blood; assay type: functional, organism-based; conditions: IRHOD/CO/2008/SN3, Blood
[12] = Selectivity index, ratio of IC50 for african green monkey Vero cells to IC50 for trypomastigote form of Trypanosoma cruzi IRHOD/CO/2008/SN3; assay type: toxicity, cell-based; conditions: read-out: Ratio IC50
Trypanosoma cruzi [13] = test: Increase in succinate catabolites in epimastigote Trypanosoma cruzi at IC25 concentration after 96 hrs; assay type: functional
Trypanosoma cruzi [14] = test: Increase in pyruvate catabolites in epimastigote Trypanosoma cruzi at IC25 concentration after 96 hrs; assay type: functional
Trypanosoma cruzi [15] = test: Increase in acetate catabolites in epimastigote Trypanosoma cruzi at IC25 concentration after 96 hrs; assay type: functional
Trypanosoma cruzi [16] = test: Increase in L-alanine catabolites in epimastigote Trypanosoma cruzi at IC25 concentration after 96 hrs; assay type: functional
Trypanosoma cruzi [17] = test: Increase in D-lactate catabolites in epimastigote Trypanosoma cruzi at IC25 concentration after 96 hrs; assay type: functional
Trypanosoma cruzi [18] = test: Trypanocidal activity against epimastigote Trypanosoma cruzi IRHOD/CO/2008/SN3 infected in african green monkey Vero cells assessed as decrease in average number of amastigotes per infected cell at IC25 concentration on day 10; assay type: functional; set-up: scale not given: the % may be the effect or the level left
Trypanosoma cruzi [19] = test: Antiparasitic activity against trypomastigote form of Trypanosoma cruzi IRHOD/CO/2008/SN3 infected in BALB/c mouse acute chagas disease model assessed as parasite reduction in blood at 25 mg/kg, ip measured on day 40 post infection; assay type: functional; conditions: IRHOD/CO/2008/SN3, Blood, 960 h, route intraperitoneal
Trypanosoma cruzi [20] = test: Antiparasitic activity against trypomastigote form of Trypanosoma cruzi IRHOD/CO/2008/SN3 infected in BALB/c mouse acute chagas disease model assessed as parasitemia reactivation at 25 mg/kg, ip after 60 days immunosuppressed with cyclophosphamide monohydrate measured up to day 120 post infection (reference value: 80.3%); assay type: functional; conditions: route intraperitoneal
Trypanosoma cruzi [21] = test: Antiparasitic activity against trypomastigote form of Trypanosoma cruzi IRHOD/CO/2008/SN3 infected in BALB/c mouse acute chagas disease model assessed as heart free from parasite at 25 mg/kg, ip after 60 days immunosuppressed with cyclophosphamide monohydrate measured up to day 120 post infection by PCR analysis; assay type: functional; conditions: route intraperitoneal
Mus musculus [22] = test: Toxicity in Trypanosoma cruzi IRHOD/CO/2008/SN3 infected in BALB/c mouse acute chagas disease model assessed as kidney marker urea level at 25 mg/kg, ip after 60 days immunosuppressed with cyclophosphamide monohydrate measured up to day 120 post infection […]; assay type: organism-based; set-up: dose 25 mg/kg, route intraperitoneal; conditions: in vivo, 1440 h
Mus musculus [23] = test: Toxicity in Trypanosoma cruzi IRHOD/CO/2008/SN3 infected in BALB/c mouse acute chagas disease model assessed as heart marker LDH level at 25 mg/kg, ip after 60 days immunosuppressed with cyclophosphamide monohydrate measured up to day 120 post infection […]; assay type: organism-based; set-up: dose 25 mg/kg, route intraperitoneal; conditions: in vivo, 1440 h
Mus musculus [24] = test: Toxicity in Trypanosoma cruzi IRHOD/CO/2008/SN3 infected in BALB/c mouse acute chagas disease model assessed as liver marker AST/GOT level at 25 mg/kg, ip after 60 days immunosuppressed with cyclophosphamide monohydrate measured up to day 120 post infection […]; assay type: organism-based; set-up: dose 25 mg/kg, route intraperitoneal; conditions: in vivo, 1440 h
Mus musculus [25] = test: Toxicity in Trypanosoma cruzi IRHOD/CO/2008/SN3 infected in BALB/c mouse acute chagas disease model assessed as liver marker ALT/GPT level at 25 mg/kg, ip after 60 days immunosuppressed with cyclophosphamide monohydrate measured up to day 120 post infection […]; assay type: organism-based; set-up: dose 25 mg/kg, route intraperitoneal; conditions: in vivo, 1440 h
Mus musculus [26] = test: Toxicity in Trypanosoma cruzi IRHOD/CO/2008/SN3 infected in BALB/c mouse acute chagas disease model assessed as total bilirubuin level at 25 mg/kg, ip after 60 days immunosuppressed with cyclophosphamide monohydrate measured up to day 120 post infection […]; assay type: organism-based; set-up: dose 25 mg/kg, route intraperitoneal; conditions: in vivo, 1440 h
Mus musculus [27] = test: Toxicity in Trypanosoma cruzi IRHOD/CO/2008/SN3 infected in BALB/c mouse acute chagas disease model assessed as alkalyne phosphatase level at 25 mg/kg, ip after 60 days immunosuppressed with cyclophosphamide monohydrate measured up to day 120 post infection […]; assay type: organism-based; set-up: dose 25 mg/kg, route intraperitoneal; conditions: in vivo, 1440 h
Trypanosoma cruzi [28] = test: Trypanocidal activity against epimastigote Trypanosoma cruzi IRHOD/CO/2008/SN3 assessed as morphological disturbance at IC25 concentration; assay type: functional, organism-based
[29] = target: Superoxide dismutase [Cu-Zn] (Homo sapiens, UniProt P00441); test: Inhibition of CuZn-SOD in human erythrocytes; assay type: cell-based
[30] = Inhibition of Fe-SOD in Trypanosoma cruzi epimastigote
Trypanosoma cruzi [31] = test: Inhibition of Fe-SOD in Trypanosoma cruzi epimastigote at 80 uM
Trypanosoma cruzi [32] = test: Decrease in pyruvate catabolites in epimastigote Trypanosoma cruzi at IC25 concentration after 96 hrs; assay type: functional
Trypanosoma cruzi [33] = test: Decrease in acetate catabolites in epimastigote Trypanosoma cruzi at IC25 concentration after 96 hrs; assay type: functional
Trypanosoma cruzi [34] = test: Decrease in L-alanine catabolites in epimastigote Trypanosoma cruzi at IC25 concentration after 96 hrs; assay type: functional
Trypanosoma cruzi [35] = test: Decrease in D-lactate catabolites in epimastigote Trypanosoma cruzi at IC25 concentration after 96 hrs; assay type: functional
Trypanosoma cruzi [36] = test: Trypanocidal activity against epimastigote Trypanosoma cruzi IRHOD/CO/2008/SN3 infected in african green monkey Vero cells assessed as decrease in rate of infection at IC25 concentration on day 10; assay type: functional
Mus musculus [37] = test: Toxicity in Trypanosoma cruzi IRHOD/CO/2008/SN3 infected in BALB/c mouse acute chagas disease model assessed as kidney marker uric acid level at 25 mg/kg, ip after 60 days immunosuppressed with cyclophosphamide monohydrate measured up to day 120 post infection […]; assay type: organism-based; set-up: dose 25 mg/kg, route intraperitoneal; conditions: in vivo, 1440 h
Mus musculus [38] = test: Toxicity in Trypanosoma cruzi IRHOD/CO/2008/SN3 infected in BALB/c mouse acute chagas disease model assessed as heart marker CK-MB level at 25 mg/kg, ip after 60 days immunosuppressed with cyclophosphamide monohydrate measured up to day 120 post infection […]; assay type: organism-based; set-up: dose 25 mg/kg, route intraperitoneal; conditions: in vivo, 1440 h

Chain of Superoxide dismutase [Cu-Zn] (P00441 whole entry): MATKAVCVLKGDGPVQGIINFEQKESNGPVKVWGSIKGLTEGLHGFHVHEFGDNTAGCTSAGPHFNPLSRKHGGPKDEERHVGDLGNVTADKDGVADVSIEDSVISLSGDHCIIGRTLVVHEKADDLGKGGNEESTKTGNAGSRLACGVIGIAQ

SMILES: CC(=O)OC[C@@]1(C)CCC[C@]2(C)c3cc(O)c(C(C)C)cc3C(=O)C[C@@H]12
- pIC50 (Trypanosoma cruzi [1]): 4.58
- pIC50 (Trypanosoma cruzi [2]): 4.59
- pIC50 (Vero): 4.14
- selectivity ratio [3]: 2.8
- selectivity ratio [4]: 2.8

SMILES: O=C(Cn1ccnc1[N+](=O)[O-])NCc1ccccc1 [BENZNIDAZOLE]
- Activity (Trypanosoma cruzi [5]): 16.7%
- Activity (Trypanosoma cruzi [6]): 36%

SMILES: CC(C)C1=CC(=O)C2=C(CC[C@H]3C(C)(C)CCC[C@]23C)C1=O
- pIC50 (Leishmania donovani [7]): 6.92
- pIC50 (Leishmania major): 6.74

SMILES: COc1c(C(C)C)cc2c(c1O)[C@@]1(C(=O)O)CCCC(C)(C)[C@@H]1CC2
- pIC50 (Leishmania donovani [8]): 6.12
- pIC50 (L6): 4.76

SMILES: CC(C)C1=CC2=C[C@H](O)[C@H]3C(C)(C)C(O)C=C[C@]3(C)C2=C(O)C1=O (some centres not stated)
- pIC50 (Plasmodium falciparum): 5.04
- selectivity ratio [9]: 10.4
- pIC50 (Trypanosoma brucei): 5.72
- selectivity ratio [10]: 50.5

SMILES: CC(C)c1cc2c(cc1O)[C@@]1(C)CCCC(C)(C)[C@@H]1CC2=O [SUGIOL]
- pIC50 (Trypanosoma cruzi [1]): 4.48
- pIC50 (Trypanosoma cruzi [2]): 4.61
- pIC50 (Vero): 4.34
- selectivity ratio [3]: 1.37
- selectivity ratio [4]: 1.84

SMILES: COC(=O)[C@]1(C)CCC[C@]2(C)c3ccc(O)cc3CC[C@@H]12
- pIC50 (Trypanosoma cruzi [1]): 4.41
- pIC50 (Trypanosoma cruzi [2]): 4.57
- pIC50 (Trypanosoma cruzi [11]): 4.05
- pIC50 (Vero): 3.32
- selectivity ratio [3]: 12.1
- selectivity ratio [4]: 17.5
- selectivity ratio [12]: 5.3
- Activity (Trypanosoma cruzi [13]): 30%
- Activity (Trypanosoma cruzi [14]): 2.3%
- Activity (Trypanosoma cruzi [15]): 6.3%
- Activity (Trypanosoma cruzi [16]): 0.5%
- Activity (Trypanosoma cruzi [17]): 0.4%
- Activity (Trypanosoma cruzi [18]): 41%
- inhibition in vivo at 25 mg/kg (Trypanosoma cruzi [19]): 22%
- Activity (Trypanosoma cruzi [20]): 48.1%
- Activity (Trypanosoma cruzi [21]): 17%
- Activity (Mus musculus [22]): < 10%
- Activity (Mus musculus [23]): < 10%
- Activity (Mus musculus [24]): < 10%
- Activity (Mus musculus [25]): < 10%
- Activity (Mus musculus [26]): < 10%
- Activity (Mus musculus [27]): < 10%
- Activity (Trypanosoma cruzi [28]): inactive
- pIC50 [29]: 4.23
- pIC50 [30]: 4.36
- inhibition (Trypanosoma cruzi [31]): 100%

SMILES: CC(C)c1cc2c(cc1O)[C@@]1(C)CCC[C@@](C)(CO)[C@@H]1[C@@H](O)C2=O
- pIC50 (Trypanosoma cruzi [1]): 4.73
- pIC50 (Trypanosoma cruzi [2]): 5.15
- pIC50 (Trypanosoma cruzi [11]): 4.22
- pIC50 (Vero): 3.65
- selectivity ratio [3]: 11.8
- selectivity ratio [4]: 31.4
- selectivity ratio [12]: 3.7
- Activity (Trypanosoma cruzi [13]): 17.1%
- inhibition (INH) (Trypanosoma cruzi [32]): 1.4%
- inhibition (INH) (Trypanosoma cruzi [33]): 0.3%
- inhibition (INH) (Trypanosoma cruzi [34]): 7.7%
- inhibition (INH) (Trypanosoma cruzi [35]): 6.4%
- inhibition (INH) (Trypanosoma cruzi [36]): 80%
- Activity (Trypanosoma cruzi [18]): 38%
- inhibition in vivo at 25 mg/kg (Trypanosoma cruzi [19]): 45%
- Activity (Trypanosoma cruzi [20]): 9.8%
- Activity (Trypanosoma cruzi [21]): 50%
- Activity (Mus musculus [22]): < 10%
- Activity (Mus musculus [37]): < 10%
- Activity (Mus musculus [38]): < 10%
- Activity (Mus musculus [23]): > 10%
- Activity (Mus musculus [24]): > 10%
- Activity (Mus musculus [25]): < 10%
- Activity (Mus musculus [26]): < 10%
- Activity (Mus musculus [27]): < 10%
- Activity (Trypanosoma cruzi [28]): Active
- pIC50 [29]: 4.25
- pIC50 [30]: 4.38
- inhibition (Trypanosoma cruzi [31]): 100%

SMILES: COC1=C(C(C)C)C(=O)C2=C(O)C(=O)C3=C(C=CCC3(C)C)C2=C1
- pIC50 (Leishmania donovani [7]): 6.77
- pIC50 (Leishmania major): 6.54

SMILES: CC(C)c1cc2c(c(Br)c1O)[C@@]1(C)CCCC(C)(C)[C@@H]1CC2
- pIC50 (Trypanosoma cruzi [1]): 4.30
- pIC50 (Trypanosoma cruzi [2]): 4.38
- pIC50 (Vero): 3.74
- selectivity ratio [3]: 3.69
- selectivity ratio [4]: 4.38
